The text below walks through data of patent publication US20150274719A1, “AMINO-SUBSTITUTED IMIDAZO[1,2-A]PYRIDINECARBOXAMIDES AND THEIR USE” (BAYER PHARMA AKTIENGESELLSCHAFT, priority 2012, published 2015).

The target in the assay is T1, recombinant guanylate cyclase reporter cell line (Rattus norvegicus, UniProt P19686+P20595).
T1 construct: expressed in transfected cells; host or cells: recombinant reporter cell line
T1 sequence (P19686 1-690): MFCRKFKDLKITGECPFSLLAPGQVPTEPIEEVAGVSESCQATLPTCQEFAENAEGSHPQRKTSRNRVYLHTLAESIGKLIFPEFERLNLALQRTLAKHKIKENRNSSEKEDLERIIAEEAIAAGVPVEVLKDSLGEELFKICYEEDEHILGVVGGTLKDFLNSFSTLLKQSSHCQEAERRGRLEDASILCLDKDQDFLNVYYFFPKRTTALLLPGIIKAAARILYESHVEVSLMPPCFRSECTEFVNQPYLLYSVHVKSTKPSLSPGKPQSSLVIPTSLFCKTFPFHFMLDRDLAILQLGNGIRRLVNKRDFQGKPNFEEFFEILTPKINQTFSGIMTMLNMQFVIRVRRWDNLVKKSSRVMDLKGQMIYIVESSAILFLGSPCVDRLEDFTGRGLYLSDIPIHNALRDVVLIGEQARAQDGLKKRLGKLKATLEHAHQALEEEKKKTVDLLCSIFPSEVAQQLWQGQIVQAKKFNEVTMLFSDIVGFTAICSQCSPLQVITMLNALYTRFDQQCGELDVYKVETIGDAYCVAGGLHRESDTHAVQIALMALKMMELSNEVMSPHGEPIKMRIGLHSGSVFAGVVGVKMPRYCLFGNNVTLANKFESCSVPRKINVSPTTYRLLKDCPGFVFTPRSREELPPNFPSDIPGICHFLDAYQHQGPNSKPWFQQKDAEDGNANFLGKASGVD
T1 sequence (P20595 1-619): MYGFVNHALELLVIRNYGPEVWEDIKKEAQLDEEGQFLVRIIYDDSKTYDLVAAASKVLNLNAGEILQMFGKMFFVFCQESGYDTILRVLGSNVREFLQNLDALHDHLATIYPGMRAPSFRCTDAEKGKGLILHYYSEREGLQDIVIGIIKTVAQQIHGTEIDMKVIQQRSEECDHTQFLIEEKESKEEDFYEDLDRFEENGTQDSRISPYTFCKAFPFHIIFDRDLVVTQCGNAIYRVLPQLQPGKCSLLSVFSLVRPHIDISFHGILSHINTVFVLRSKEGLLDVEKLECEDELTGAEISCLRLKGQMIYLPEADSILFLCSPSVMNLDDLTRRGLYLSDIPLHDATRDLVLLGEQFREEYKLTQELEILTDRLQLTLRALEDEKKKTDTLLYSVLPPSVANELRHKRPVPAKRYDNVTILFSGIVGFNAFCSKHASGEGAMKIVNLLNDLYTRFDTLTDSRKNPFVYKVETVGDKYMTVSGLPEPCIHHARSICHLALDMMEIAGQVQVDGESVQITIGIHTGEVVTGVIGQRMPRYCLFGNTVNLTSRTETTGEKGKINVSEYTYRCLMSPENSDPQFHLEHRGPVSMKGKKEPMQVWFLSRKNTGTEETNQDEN
The assay is described as follows: Action on recombinant guanylate cyclase reporter cell line. It is filed as cell-based. As to conditions: in some cases mean values from individual determinations. Put shortly: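 Cellular activity was measured in a reporter cell line expressing recombinant guanylate cyclase. Values are given as MEC, the minimal effective concentration, and some are means of individual determinations.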

The structures appear in SMILES notation.

Turning to `Cc1cc(OCc2c(F)cccc2F)c2nc(C)c(C(=O)NC3(C)CC3(C)N)n2c1` (racemic) [Example 320, rac-N-(2-amino-1,2-dimethylcyclopropyl)-8-[(2,6-difluorobenzyl)oxy]-2,6-dimethylimidazo[1,2-a]pyridine-3-carboxamide (racemate)], the “MEC (minimal effective concentration)” value stood at 0.30 µM. With `Cc1cc(OCc2c(F)cccc2F)c2nc(C)c(C(=O)NCC(C)(N)Cc3ncn(-c4cc(C)on4)n3)n2c1` (racemic) [Example 321, rac-N-{2-amino-2-methyl-3-[1-(5-methyl-1,2-oxazol-3-yl)-1H-1,2,4-triazol-3-yl]propyl}-8-[(2,6-difluorobenzyl)oxy]-2,6-dimethylimidazo[1,2-a]pyridine-3-carboxamide], the “MEC (minimal effective concentration)” value worked out at 0.30 µM.

With `Cc1cc(OCc2c(F)cccc2F)c2nc(C)c(C(=O)NC3CC3N)n2c1` (racemic) [Example 330, rac-N-(2-aminocyclopropyl)-8-[(2,6-difluorobenzyl)oxy]-2,6-dimethylimidazo[1,2-a]pyridine-3-carboxamide], the “MEC (minimal effective concentration)” value is 0.30 µM. As for `Cc1cc(OCc2c(F)cccc2F)c2nc(C)c(C(=O)NC3CCC3(C)N)n2c1` (racemic) [Example 331, rac-N-(2-amino-2-methylcyclobutyl)-8-[(2,6-difluorobenzyl)oxy]-2,6-dimethylimidazo[1,2-a]pyridine-3-carboxamide], the figure is 0.30 µM.

As for `Cc1cc(OCc2c(F)cccc2F)c2nc(C)c(C(=O)NC3(C)CCC3(C)N)n2c1` (racemic) [Example 335, rac-N-[2-amino-1,2-dimethylcyclobutyl]-8-[(2,6-difluorobenzyl)oxy]-2,6-dimethylimidazo[1,2-a]pyridine-3-carboxamide], the “MEC (minimal effective concentration)” value amounted to 0.30 µM. As for `CCCC(C)(N)CNC(=O)c1c(C)nc2c(OCc3ccccc3)cc(C)cn12` (racemic) [Example 340, rac-N-(2-amino-2-methylpentyl)-8-(benzyloxy)-2,6-dimethylimidazo[1,2-a]pyridine-3-carboxamide], the figure is 1.00 µM; as for `Cc1cc(OCc2c(F)cccc2F)c2nc(C)c(C(=O)NC3C(N)C3(C)C)n2c1` (racemic) [Example 341, rac-N-(3-amino-2,2-dimethylcyclopropyl)-8-[(2,6-difluorobenzyl)oxy]-2,6-dimethylimidazo[1,2-a]pyridine-3-carboxamide (racemate)], 0.30 µM. As for `Cc1cc(OCc2c(F)cccc2F)c2nc(C)c(C(=O)NC3CCC4NCCC43)n2c1` (racemic) [Example 342, rac-8-[(2,6-Difluorobenzyl)oxy]-2,6-dimethyl-N-(octahydrocyclopenta[b]pyrrol-4-yl)imidazo[1,2-a]pyridine-3-carboxamide], the figure is 1.00 µM; as for `CCCC(C)(N)CNC(=O)c1c(C)nc2c(OCc3ccccc3Cl)cc(C)cn12` (racemic) [Example 343, rac-N-(2-amino-2-methylpentyl)-8-[(2-chlorobenzyl)oxy]-2,6-dimethylimidazo[1,2-a]pyridine-3-carboxamide], 1.00 µM.

`Cc1cc(OCc2c(F)cccc2F)c2nc(C)c(C(=O)NCC3CN(Cc4ccccc4)CCO3)n2c1` (racemic) [Example 344, rac-N-[(4-benzylmorpholin-2-yl)methyl]-8-[(2,6-difluorobenzyl)oxy]-2,6-dimethylimidazo[1,2-a]pyridine-3-carboxamide]: the “MEC (minimal effective concentration)” value is 1.00 µM. The value for `Cc1cc(OCc2c(F)cccc2F)c2nc(C)c(C(=O)NCC3CNCCO3)n2c1` (racemic) [Example 345, rac-8-[(2,6-Difluorobenzyl)oxy]-2,6-dimethyl-N-(morpholin-2-ylmethyl)imidazo[1,2-a]pyridine-3-carboxamide] was 1.00 µM. In the case of `Cc1cc(OCc2c(F)cccc2F)c2nc(C)c(C(=O)NC34CCC3CNC4)n2c1` (racemic) [Example 346, rac-N-(3-azabicyclo[3.2.0]hept-1-yl)-8-[(2,6-difluorobenzyl)oxy]-2,6-dimethylimidazo[1,2-a]pyridine-3-carboxamide], the “MEC (minimal effective concentration)” value is 1.00 µM.

Turning to `Cc1cc(OCc2c(F)cccc2F)c2nc(C)c(C(=O)NC3CNCC3F)n2c1` (racemic) [Example 347, rac-8-[(2,6-Difluorobenzyl)oxy]-N-(4-fluoropyrrolidin-3-yl)-2,6-dimethylimidazo[1,2-a]pyridine-3-carboxamide], the “MEC (minimal effective concentration)” value was found to be 1.00 µM. The value for `CCCC(C)(N)CNC(=O)c1c(C)nc2c(OCc3cccc(F)c3)cc(C)cn12` (racemic) [Example 348, rac-N-(2-amino-2-methylpentyl)-8-[(3-fluorobenzyl)oxy]-2,6-dimethylimidazo[1,2-a]pyridine-3-carboxamide] was 1.00 µM; that for `Cc1cc(OCc2c(F)cccc2F)c2nc(C)c(C(=O)NCC(C)(N)COc3ccc(F)c(F)c3)n2c1` (racemic) [Example 350, rac-N-[2-amino-3-(3,4-difluorophenoxy)-2-methylpropyl]-8-[(2,6-difluorobenzyl)oxy]-2,6-dimethylimidazo[1,2-a]pyridine-3-carboxamide] was 1.00 µM. As for `CCCC(C)(N)CNC(=O)c1c(C)nc2c(OCc3c(F)cccc3OC)cc(C)cn12` (racemic) [Example 351, rac-N-(2-amino-2-methylpentyl)-8-[(2-fluoro-6-methoxybenzyl)oxy]-2,6-dimethylimidazo[1,2-a]pyridine-3-carboxamide], the figure is 3.00 µM; as for `Cc1cc(OCc2c(F)cccc2F)c2nc(C)c(C(=O)NCC3CSCCN3)n2c1` (racemic) [Example 366, rac-8-[(2,6-difluorobenzyl)oxy]-2,6-dimethyl-N-(thiomorpholin-3-ylmethyl)imidazo[1,2-a]pyridine-3-carboxamide], 0.10 µM; as for `Cc1cc(OCc2c(F)cccc2F)c2nc(C)c(C(=O)NCC(N)c3cccc(OCCO)c3)n2c1` (racemic) [Example 367, rac-N-{2-amino-2-[3-(2-hydroxyethoxy)phenyl]ethyl}-8-[(2,6-difluorobenzyl)oxy]-2,6-dimethylimidazo[1,2-a]pyridine-3-carboxamide], 3.00 µM. The value for `COc1ccc(CC(C)(N)CNC(=O)c2c(C)nc3c(OCc4c(F)cccc4F)cc(C)cn23)cc1` (racemic) [Example 368, rac-N-[2-amino-3-(4-methoxyphenyl)-2-methylpropyl]-8-[(2,6-difluorobenzyl)oxy]-2,6-dimethylimidazo[1,2-a]pyridine-3-carboxamide] was 0.10 µM. Turning to `Cc1cc(OCc2c(F)cccc2F)c2nc(C)c(C(=O)NCC(N)c3ccc(C)o3)n2c1` (racemic) [Example 369, rac-N-[2-amino-2-(5-methyl-2-furyl)ethyl]-8-[(2,6-difluorobenzyl)oxy]-2,6-dimethylimidazo[1,2-a]pyridine-3-carboxamide], the “MEC (minimal effective concentration)” value came out at 0.30 µM. Take `Cc1cc(OCc2c(F)cccc2F)c2nc(C)c(C(=O)NCC(N)c3cnn(C)c3)n2c1` (racemic) [Example 370, rac-N-[2-amino-2-(1-methyl-1H-pyrazol-4-yl)ethyl]-8-[(2,6-difluorobenzyl)oxy]-2,6-dimethylimidazo[1,2-a]pyridine-3-carboxamide]: the “MEC (minimal effective concentration)” value came to 3.00 µM. `Cc1cc(OCc2c(F)cccc2F)c2nc(C)c(C(=O)NCC(N)c3ccc4c(c3)OCCO4)n2c1` (racemic) [Example 371, rac-N-[2-amino-2-(2,3-dihydro-1,4-benzodioxin-6-yl)ethyl]-8-[(2,6-difluorobenzyl)oxy]-2,6-dimethylimidazo[1,2-a]pyridine-3-carboxamide]: the “MEC (minimal effective concentration)” value came out at 3.00 µM.
